This is an account of results in patent US20070123465A1, “Oligomeric peptides and their use for the treatment of hiv infections” (IPF PHARMACEUTICALS GMBH, priority 2004, published 2007).

This experiment relates to HIV-1 NL4-3. It counts as cell-based. The settings on record: X4-tropic HIV-1 NL4-3, P4-CCR5 cells. The source says: P4-CCR5 indicator cells (Charneau et al., 1994; Journal of Molecular Biology 241, 651-662) expressing the primary CD4 receptor and both major HIV-1 entry cofactors CXCR4 and CCR5, were used to evaluate whether the oligomeric peptides according to the invention are potent inhibitors of HIV-1 infection. These cells contain the β-galactosidase reporter gene under the control of the HIV-1 promoter. Thus, activation of the β-galactosidase reporter gene allows to measure the efficiency of HIV-1 infection and thus to quantitate the potency of HIV-1 inhibitors (Detheux M. et al., 2000; Journal of Experimental Medicine 192, 1501-1508; Muinch et al., 2002; Antimicrobial Agents and Chemotherapy 46, 982-990).
To perform a typical infection assay, P4-CCR5 cells (Charneau et al., 1994; Journal of Molecular Biology 241, 651-662; Charneau et al., Virology. 1994 205, 247-53) were kept in RPMI 1640 medium supplemented with 10 volume % FCS. This cell line coexpresses CD4 and both HIV-1 coreceptors CCR5 and CXCR4 and contains the β-galactosidase gene under the control of the HIV-1 promoter. Virus stocks were generated by the calcium coprecipitation method as described (Detheux et al., 3 Exp Med. 192:1501-8; 2000), and the p24 antigen levels were quantitated with an HIV p24 ELISA kit obtained through the NIH AIDS Reagent Program. Cells were seeded in flat-bottomed 96-well dishes, cultured overnight, and incubated with the different doses of peptide for 2 h before infection with virus containing 1 ng of p24 antigen in a total volume of […] of medium. After overnight incubation, cells were washed twice and cultivated in fresh culture medium without inhibitory peptide. Three days after infection the cells were lysed, and infectivity was quantitated using the Galacto-Light Plus™ chemiluminescence reporter assay kit (Tropix, Bedford, Mass.) as recommended by the manufacturer. All infections were performed in quintuplicate.
Below, the IC50 values of peptides of the invention obtained from the described infection assay are provided.

Bridge positions count the residues as written; N and C are the ends. Square brackets hold non-standard residues; d marks the D form. Peptide text beside a SMILES is read from it. I, II: the chains in the order shown. dTic = O=C(O)[C@H]1Cc2ccccc2CN1; NMeL = CN[C@@H](CC(C)C)C(=O)O

By IC50 is commonly meant the concentration that inhibits the measured activity by half. A low value points to greater potency in that assay. `CC[C@H](C)[C@H](NC(=O)[C@H](C)NC(=O)[C@H](CCC(=O)O)NC(=O)[C@@H](N)CC(C)C)C(=O)N1CCC[C@H]1C(=O)N[C@@H](CCSC)C(=O)N[C@@H](CSSC[C@H](NC(=O)[C@H](CCSC)NC(=O)[C@@H]1CCCN1C(=O)[C@@H](NC(=O)[C@H](C)NC(=O)[C@H](CCC(=O)O)NC(=O)[C@@H](N)CC(C)C)[C@@H](C)CC)C(=O)N[C@H](C(=O)N1CCC[C@H]1C(=O)N1CCC[C@H]1C(=O)N[C@@H](CCC(=O)O)C(=O)N[C@@H](Cc1ccccc1)C(=O)N[C@@H](CC(C)C)C(=O)N[C@@H](Cc1ccccc1)C(=O)NCC(=O)N[C@@H](CCCCN)C(=O)N1CCC[C@H]1C(=O)N[C@@H](Cc1ccccc1)C(=O)N[C@H](C(=O)N[C@@H](Cc1ccccc1)C(=O)O)C(C)C)[C@@H](C)CC)C(=O)N[C@H](C(=O)N1CCC[C@H]1C(=O)N1CCC[C@H]1C(=O)N[C@@H](CCC(=O)O)C(=O)N[C@@H](Cc1ccccc1)C(=O)N[C@@H](CC(C)C)C(=O)N[C@@H](Cc1ccccc1)C(=O)NCC(=O)N[C@@H](CCCCN)C(=O)N1CCC[C@H]1C(=O)N[C@@H](Cc1ccccc1)C(=O)N[C@H](C(=O)N[C@@H](Cc1ccccc1)C(=O)O)C(C)C)[C@@H](C)CC` [VIR-577] (I: H-LEAIPMCIPPEFLFGKPFVF-OH / II: H-LEAIPMCIPPEFLFGKPFVF-OH; disulfide I:7-II:7) yielded an IC50 of 3.27 µM.
Compound `CC[C@H](C)[C@H](NC(=O)[C@H](CCCCN)NC(=O)[C@H](CCC(=O)O)NC(=O)[C@@H](N)CC(C)C)C(=O)N1CCC[C@H]1C(=O)N[C@@H](CSSC[C@H](NC(=O)[C@@H]1CCCN1C(=O)[C@@H](NC(=O)[C@H](CCCCN)NC(=O)[C@H](CCC(=O)O)NC(=O)[C@@H](N)CC(C)C)[C@@H](C)CC)C(=O)N[C@@H](CO)C(=O)N[C@H](C(=O)N1CCC[C@H]1C(=O)N1CCC[C@@H]1C(=O)N[C@@H](CCC(=O)O)C(=O)N[C@H](C(=O)N[C@@H](C)C(=O)N[C@@H](Cc1ccccc1)C(=O)N[C@@H](CC(N)=O)C(=O)N[C@@H](CCCCN)C(=O)N1CCC[C@H]1C(=O)N[C@@H](Cc1ccccc1)C(=O)N[C@H](C(=O)N[C@@H](Cc1ccccc1)C(=O)O)C(C)C)C(C)C)[C@@H](C)CC)C(=O)N[C@@H](CO)C(=O)N[C@H](C(=O)N1CCC[C@H]1C(=O)N1CCC[C@@H]1C(=O)N[C@@H](CCC(=O)O)C(=O)N[C@H](C(=O)N[C@@H](C)C(=O)N[C@@H](Cc1ccccc1)C(=O)N[C@@H](CC(N)=O)C(=O)N[C@@H](CCCCN)C(=O)N1CCC[C@H]1C(=O)N[C@@H](Cc1ccccc1)C(=O)N[C@H](C(=O)N[C@@H](Cc1ccccc1)C(=O)O)C(C)C)C(C)C)[C@@H](C)CC` [VIR-705, (LEKIPCSIPpEVAFNKPFVF)2] (I: H-LEKIPCSIP[dP]EVAFNKPFVF-OH / II: H-LEKIPCSIP[dP]EVAFNKPFVF-OH; disulfide I:6-II:6) showed an IC50 of 0.484 µM.
With `CC[C@H](C)[C@H](NC(=O)[C@H](C)NC(=O)[C@H](CCC(=O)O)NC(=O)[C@@H](N)CC(C)C)C(=O)N1CCC[C@H]1C(=O)N[C@@H](CSSC[C@H](NC(=O)[C@@H]1CCCN1C(=O)[C@@H](NC(=O)[C@H](C)NC(=O)[C@H](CCC(=O)O)NC(=O)[C@@H](N)CC(C)C)[C@@H](C)CC)C(=O)NCC(=O)N[C@H](C(=O)N1CCC[C@H]1C(=O)N1CCC[C@@H]1C(=O)N[C@@H](CCC(=O)O)C(=O)N[C@H](C(=O)N1Cc2ccccc2C[C@@H]1C(=O)N[C@@H](Cc1ccccc1)C(=O)N[C@@H](CC(N)=O)C(=O)N[C@@H](CCCCN)C(=O)N1CCC[C@H]1C(=O)N[C@@H](Cc1ccccc1)C(=O)N[C@H](C(=O)N[C@@H](Cc1ccccc1)C(=O)O)C(C)C)C(C)C)[C@@H](C)CC)C(=O)NCC(=O)N[C@H](C(=O)N1CCC[C@H]1C(=O)N1CCC[C@@H]1C(=O)N[C@@H](CCC(=O)O)C(=O)N[C@H](C(=O)N1Cc2ccccc2C[C@@H]1C(=O)N[C@@H](Cc1ccccc1)C(=O)N[C@@H](CC(N)=O)C(=O)N[C@@H](CCCCN)C(=O)N1CCC[C@H]1C(=O)N[C@@H](Cc1ccccc1)C(=O)N[C@H](C(=O)N[C@@H](Cc1ccccc1)C(=O)O)C(C)C)C(C)C)[C@@H](C)CC` [VIR-706, (LEAIPCGIPpEV(D-Tic)FNKPFVF)2] (I: H-LEAIPCGIP[dP]EV[dTic]FNKPFVF-OH / II: H-LEAIPCGIP[dP]EV[dTic]FNKPFVF-OH; disulfide I:6-II:6; N-terminus and C-terminus assumed) the figure was 0.074 µM; with `CC[C@H](C)[C@H](NC(=O)[C@H](C)NC(=O)[C@H](CCC(=O)O)NC(=O)[C@H](CC(C)C)NC)C(=O)N1CCC[C@H]1C(=O)N[C@@H](CSSC[C@H](NC(=O)[C@@H]1CCCN1C(=O)[C@@H](NC(=O)[C@H](C)NC(=O)[C@H](CCC(=O)O)NC(=O)[C@H](CC(C)C)NC)[C@@H](C)CC)C(=O)N[C@@H](CO)C(=O)N[C@H](C(=O)N1CCC[C@H]1C(=O)N1CCC[C@H]1C(=O)N[C@@H](CCC(=O)O)C(=O)N[C@@H](Cc1ccccc1)C(=O)N[C@@H](CC(C)C)C(=O)N[C@@H](Cc1ccccc1)C(=O)NCC(=O)N[C@@H](CCCCN)C(=O)N1CCC[C@H]1C(=O)N[C@@H](Cc1ccccc1)C(=O)N[C@H](C(=O)N[C@@H](Cc1ccccc1)C(=O)O)C(C)C)[C@@H](C)CC)C(=O)N[C@@H](CO)C(=O)N[C@H](C(=O)N1CCC[C@H]1C(=O)N1CCC[C@H]1C(=O)N[C@@H](CCC(=O)O)C(=O)N[C@@H](Cc1ccccc1)C(=O)N[C@@H](CC(C)C)C(=O)N[C@@H](Cc1ccccc1)C(=O)NCC(=O)N[C@@H](CCCCN)C(=O)N1CCC[C@H]1C(=O)N[C@@H](Cc1ccccc1)C(=O)N[C@H](C(=O)N[C@@H](Cc1ccccc1)C(=O)O)C(C)C)[C@@H](C)CC` [VIR-712] (I: H-[NMeL]EAIPCSIPPEFLFGKPFVF-OH / II: H-[NMeL]EAIPCSIPPEFLFGKPFVF-OH; disulfide I:6-II:6; C-terminus assumed), 0.195 µM.
Consider “I: H-LEAIPMSIPPEFLFGKPFVFKG-OH / II: H-LEAIPMSIPPEFLFGKPFVF (amide I:21-II:C) [VIR-574]”, for which the IC50 worked out at 3.08 µM.
